EC50 and IC50 data for 23 compounds are collected here from US10316017B2, “COT modulators and methods of use thereof” (Gilead Sciences, Inc., priority 2015, dated 2019).

Structures are written as SMILES.

Assay [1] deals with TNFα production in LPS-stimulated human monocytes. Briefly: Cot Monocyte TNFα Cell Based Assay. The settings on record: Homo sapiens, Monocyte, TNFα in LPS-stimulated human monocytes; read-out: EC50 TNF. A digest of the protocol:
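TNFα release quantified by two-antibody TR-FRET, normalised to unstimulated (0%) and LPS-stimulated (100%) wells. Cells got a 1 h compound exposure at 37° C in 0.5% DMSO before 4 h challenge with 50 pg/ml LPS, at 5,000 cells/well.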

The target of assay [2] is T1, human Cot catalytic domain (30-397 amino acids) (Homo sapiens, UniProt P41279).
T1 construct: Purified recombinant human Cot catalytic domain (30-397 amino acids) was purchased from Cama Biosciences; purchased Cama Biosciences (so in the source)
T1 sequence (P41279 30-397): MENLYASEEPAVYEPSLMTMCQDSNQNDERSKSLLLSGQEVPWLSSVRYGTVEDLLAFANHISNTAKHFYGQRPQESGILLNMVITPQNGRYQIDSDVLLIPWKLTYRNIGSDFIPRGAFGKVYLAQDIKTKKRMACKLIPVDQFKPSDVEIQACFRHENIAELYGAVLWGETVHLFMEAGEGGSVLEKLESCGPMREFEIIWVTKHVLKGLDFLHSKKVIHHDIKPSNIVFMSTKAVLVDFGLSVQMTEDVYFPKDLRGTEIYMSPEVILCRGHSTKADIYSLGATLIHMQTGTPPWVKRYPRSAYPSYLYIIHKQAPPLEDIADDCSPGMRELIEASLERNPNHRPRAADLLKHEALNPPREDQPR
The experiment in a line: High Throughput Cot Biochemical Assay (KinEASE TR-FRET). The settings on record: Cot biochemical HTRF (KinEASE TR-FRET) assay; read-out: IC50 HTRF. A digest of the protocol:
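TR-FRET (KinEASE) read-out: Eu-labelled phospho-specific antibody binds XL665-tagged STK3 peptide (1 μM) phosphorylated by 5 nM human Cot kinase domain (residues 30-397). Reaction at 400 μM ATP, pH 7.0 MOPS buffer with 10 mM MgOAc, 1 mM DTT and 0.1% DMSO.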
A general note: Time-resolved FRET reads energy transfer from a long-lived donor to a nearby acceptor.

By EC50 is commonly meant the concentration at which the effect is half-maximal. As a reminder, the IC50 is the concentration needed to halve the response being measured. Regarding `CC[C@@H](Nc1c(C#N)cnc2c(Cl)cc(N[C@H](c3cn(CCF)nn3)c3ccccc3F)cc12)c1ccccc1` [Example 446, 8-chloro-6-(((S)-(1-(2-fluoroethyl)-1H-1,2,3-triazol-4-yl)(2-fluorophenyl)methyl)amino)-4-(((R)-1-phenylpropyl)amino) quinoline-3-carbonitrile], the EC50 in assay [1] came to 0.338 µM. Moreover, in assay [2], the IC50 was 0.011 µM.

With `N#Cc1cnc2c(Cl)cc(N[C@H](c3c[nH]nn3)c3ccccc3F)cc2c1Nc1cnc(F)c(F)c1` [Example 447, (S)-8-chloro-4-((5,6-difluoropyridin-3-yl)amino)-6-(((2-fluorophenyl) (1H-1,2,3-triazol-4-yl)methyl)amino)quinoline-3-carbonitrile], in assay [1], the EC50 worked out at 1.93 µM. Moreover, in assay [2], the IC50 worked out at 0.023 µM.

Regarding `N#Cc1cnc2c(Cl)cc(N[C@H](c3c[nH]nn3)c3cccc(F)c3F)cc2c1Nc1cnc(F)c(F)c1` [Example 448, (S)-8-chloro-6-(((2,3-difluorophenyl)(1H-1,2,3-triazol-4-yl)methyl)amino)-4-((5,6-difluoropyridin-3-yl)amino)quinoline-3-carbonitrile], the concentration for a half-maximal effect (EC50) in assay [1] was 1.86 µM. The concentration for half-maximal inhibition (IC50) in assay [2] amounted to 0.026 µM.

`N#Cc1cnc2c(Cl)cc(N[C@@H](c3ccc(F)cc3)c3c[nH]nn3)cc2c1Nc1ccc(Cl)c(Cl)c1F` [Example 449, (S)-8-chloro-4-((3,4-dichloro-2-fluorophenyl)amino)-6-(((4-fluorophenyl)(1H-1,2,3-triazol-4-yl)methyl)amino)quinoline-3-carbonitrile]: in assay [1], the EC50 was 0.83 µM. For the same compound, the IC50 in assay [2] amounted to 0.161 µM.

On to `N#Cc1cnc2c(Cl)cc(N[C@@H](c3cccc(-c4ncco4)c3)c3cn(C4CC4)nn3)cc2c1Nc1cnc(F)c(F)c1` [Example 450, (S)-8-chloro-6-(((1-cyclopropyl-1H-1,2,3-triazol-4-yl)(3-(oxazol-2-yl)phenyl)methyl)amino)-4-((5,6-difluoropyridin-3-yl)amino)quinoline-3-carbonitrile], for which the EC50 in assay [1] turned out to be 0.305 µM. Besides, the IC50 in assay [2] is 0.003 µM.

Turning to `COC(C)(C)CNc1c(C#N)cnc2c(Cl)cc(N[C@@H](c3ccccc3)c3cn(C4CCN(C(C)(C)C)CC4)nn3)cc12` [Example 451], the EC50 in assay [1] worked out at 0.266 µM. In assay [2], the IC50 was 0.068 µM.

With `CC1(CNc2c(C#N)cnc3c(Cl)cc(N[C@@H](c4ccccc4)c4cn(C5CCN(C(C)(C)C)CC5)nn4)cc23)COC1` [Example 452, (S)-6-(((1-(1-(tert-butyl)piperidin-4-yl)-1H-1,2,3-triazol-4-yl)(phenyl)methyl)amino)-8-chloro-4-(((3-methyloxetan-3-yl)methyl)amino)quinoline-3-carbonitrile], the EC50 in assay [1] is 0.42 µM. The half-maximal inhibitory concentration (IC50) in assay [2] was determined as 0.098 µM.

In the case of `CC1(CNc2c(C#N)cnc3c(Cl)cc(N[C@@H](c4ccccc4)c4cn(C5CCN(C(C)(C)C)CC5)nn4)cc23)CCC1` [Example 453, (S)-6-(((1-(1-(tert-butyl)piperidin-4-yl)-1H-1,2,3-triazol-4-yl)(phenyl)methyl)amino)-8-chloro-4-(((1-methylcyclobutyl)methyl)amino)quinoline-3-carbonitrile], in assay [1], the concentration giving a half-maximal response (EC50) is 0.231 µM. Further, the IC50 in assay [2] is 0.011 µM.

On to `CC(C)(C)N1CCC(n2cc([C@@H](Nc3cc(Cl)c4ncc(C#N)c(NCC5CCC5)c4c3)c3ccccc3)nn2)CC1` [Example 454, (S)-6-(((1-(1-(tert-butyl)piperidin-4-yl)-1H-1,2,3-triazol-4-yl)(phenyl)methyl)amino)-8-chloro-4-((cyclobutylmethyl)amino) quinoline-3-carbonitrile], for which the half-maximal effective concentration (EC50) in assay [1] was determined as 1.77 µM. In addition, the 50% inhibitory concentration (IC50) in assay [2] came to 0.049 µM.

`CC1(CNc2c(C#N)cnc3c(Cl)cc(N[C@@H](c4ccccc4)c4cn(C5CCN(C(C)(C)C)CC5)nn4)cc23)CC1` [Example 455, (S)-6-(((1-(1-(tert-butyl)piperidin-4-yl)-1H-1,2,3-triazol-4-yl)(phenyl)methyl)amino)-8-chloro-4-(((1-methylcyclopropyl)methyl)amino)quinoline-3-carbonitrile]: the EC50 in assay [1] stood at 0.171 µM. Further, the IC50 in assay [2] is 0.048 µM.

As to `N#Cc1cnc2c(Cl)cc(N[C@@H](c3ccc(F)cc3)c3cn(C4CC4)nn3)cc2c1Nc1cnc(F)c(F)c1` [Example 456, (S)-8-chloro-6-(((1-cyclopropyl-1H-1,2,3-triazol-4-yl)(4-fluorophenyl)methyl)amino)-4-((5,6-difluoropyridin-3-yl)amino)quinoline-3-carbonitrile], the EC50 in assay [1] is 0.305 µM. Moreover, the IC50 in assay [2] was determined as 0.007 µM.

On to `CC(C)(C)n1cc([C@@H](Nc2cc(Cl)c3ncc(C#N)c(Nc4cnc(F)c(F)c4)c3c2)c2ccc(F)cc2)nn1` [Example 457, (S)-6-(((1-(tert-butyl)-1H-1,2,3-triazol-4-yl)(4-fluorophenyl)methyl)amino)-8-chloro-4-((5,6-difluoropyridin-3-yl)amino)quinoline-3-carbonitrile], for which the EC50 in assay [1] worked out at 0.616 µM. Besides, the IC50 in assay [2] is 0.043 µM.

Regarding `CC(C)n1cc([C@@H](Nc2cc(Cl)c3ncc(C#N)c(Nc4cnc(F)c(F)c4)c3c2)c2ccc(F)cc2)nn1` [Example 458, (S)-8-chloro-4-((5,6-difluoropyridin-3-yl)amino)-6-(((4-fluorophenyl)(1-isopropyl-1H-1,2,3-triazol-4-yl)methyl)amino)quinoline-3-carbonitrile], the EC50 in assay [1] was determined as 0.598 µM. For the same compound, the IC50 in assay [2] turned out to be 0.017 µM.

In the case of `N#Cc1cnc2c(Cl)cc(N[C@@H](c3ccc(F)cc3)c3cn(CCCN4CCCC4)nn3)cc2c1Nc1cnc(F)c(F)c1` [Example 459], the EC50 in assay [1] was 0.454 µM. Also, the IC50 in assay [2] amounted to 0.009 µM.

Consider `N#Cc1cnc2c(Cl)cc(N[C@H](c3c[nH]nn3)c3ccc(F)cc3F)cc2c1Nc1cnc(F)c(F)c1` [Example 460, (S)-8-chloro-6-(((2,4-difluorophenyl)(1H-1,2,3-triazol-4-yl)methyl)amino)-4-((5,6-difluoropyridin-3-yl)amino)quinoline-3-carbonitrile], for which, in assay [1], the EC50 was 1.26 µM. Besides, the IC50 in assay [2] came to 0.023 µM.

As for `[2H][C@](Nc1cc(Cl)c2ncc(C#N)c(Nc3cnc(F)c(F)c3)c2c1)(c1ccccc1)c1c[nH]nn1` [Example 461, (S)-8-chloro-4-((5,6-difluoropyridin-3-yl)amino)-6-((phenyl(1H-1,2,3-triazol-4-yl)methyl-d)amino)quinoline-3-carbonitrile], the EC50 in assay [1] came to 1.53 µM. Besides, the IC50 in assay [2] was 0.02 µM.

On to `CS(=O)(=O)c1cccc([C@H](Nc2cc(Cl)c3ncc(C#N)c(Nc4ccc(Cl)c(Cl)c4F)c3c2)c2c[nH]nn2)c1` [Example 462, (S)-8-chloro-4-((3,4-dichloro-2-fluorophenyl)amino)-6-(((3-(methylsulfonyl)phenyl) (1H-1,2,3-triazol-4-yl)methyl)amino)quinoline-3-carbonitrile], for which the EC50 in assay [1] amounted to 0.787 µM. Further, in assay [2], the IC50 turned out to be 0.017 µM.

As to `[2H][C@](Nc1cc(Cl)c2ncc(C#N)c(Nc3ccc(Cl)c(Cl)c3F)c2c1)(c1ccccc1)c1c[nH]nn1` [Example 463, (S)-8-chloro-4-((3,4-dichloro-2-fluorophenyl)amino)-6-((phenyl(1H-1,2,3-triazol-4-yl)methyl-d)amino)quinoline-3-carbonitrile], the EC50 in assay [1] came to 1.41 µM. Besides, the IC50 in assay [2] was found to be 0.144 µM.

Consider `N#Cc1ccc([C@H](Nc2cc(Cl)c3ncc(C#N)c(Nc4ccc(Cl)c(Cl)c4F)c3c2)c2c[nH]nn2)cc1` [Example 464, (S)-8-chloro-6-(((4-cyanophenyl)(1H-1,2,3-triazol-4-yl)methyl)amino)-4-((3,4-dichloro-2-fluorophenyl)amino) quinoline-3-carbonitrile], for which the EC50 in assay [1] was 0.694 µM. Moreover, the half-maximal inhibitory concentration (IC50) in assay [2] was determined as 0.061 µM.

`N#Cc1cccc([C@H](Nc2cc(Cl)c3ncc(C#N)c(Nc4ccc(Cl)c(Cl)c4F)c3c2)c2c[nH]nn2)c1` [Example 465, (S)-8-chloro-6-(((3-cyanophenyl)(1H-1,2,3-triazol-4-yl)methyl)amino)-4-((3,4-dichloro-2-fluorophenyl)amino) quinoline-3-carbonitrile]: the concentration for a half-maximal effect (EC50) in assay [1] is 0.821 µM. Besides, the IC50 in assay [2] worked out at 0.041 µM.

In the case of `N#Cc1cccc([C@H](Nc2cc(Cl)c3ncc(C#N)c(Nc4ccc(Cl)c(Cl)c4F)c3c2)c2cn(C3COC3)nn2)c1` [Example 466, (S)-8-chloro-6-(((3-cyanophenyl)(1-(oxetan-3-yl)-1H-1,2,3-triazol-4-yl)methyl)amino)-4-((3,4-dichloro-2-fluorophenyl)amino) quinoline-3-carbonitrile], the EC50 in assay [1] was 1.4 µM. Moreover, in assay [2], the IC50 amounted to 0.053 µM.

With `N#Cc1cnc2c(Cl)cc(N[C@H](c3cn(C4COC4)nn3)c3ccc(F)cc3F)cc2c1Nc1cnc(F)c(F)c1` [Example 467, (S)-8-chloro-6-(((2,4-difluorophenyl)(1-(oxetan-3-yl)-1H-1,2,3-triazol-4-yl)methyl)amino)-4-((5,6-difluoropyridin-3-yl)amino)quinoline-3-carbonitrile], the EC50 in assay [1] was 0.978 µM. The half-inhibitory concentration (IC50) in assay [2] came to 0.013 µM.

For the compound `COc1ccc(Nc2c(C#N)cnc3c(Cl)cc(N[C@@H](c4ccccc4)c4cn(C(C)(C)C)nn4)cc23)cn1` [Example 468, (S)-6-(((1-(tert-butyl)-1H-1,2,3-triazol-4-yl)(phenyl)methyl)amino)-8-chloro-4-((6-methoxypyridin-3-yl)amino)quinoline-3-carbonitrile], the EC50 in assay [1] is 3.15 µM. The IC50 in assay [2] was found to be 0.173 µM.
